Series [1] concerns Trypanosoma cruzi. The series is described as follows: Antitrypanosomal activity against Trypanosoma cruzi Tulahuen amastigotes infected in human HT-1080 cells assessed as reduction in parasite growth by microscopic analysis. The class given is functional, organism-based.
Series [2] in a line: Cytotoxicity against human HT-1080 cells assessed reduction in cell viability. The class given is toxicity, cell-based.
Series [3] is described as follows: Selectivity index, ratio of CC50 for cytotoxicity for human HT-1080 cells to IC50 for antitrypanosomal activity against Trypanosoma cruzi Tulahuen infected in human HT-1080 cells. The settings on record: read-out: Ratio CC50/IC50. The class given is toxicity, cell-based.
Series [4] concerns Trypanosoma cruzi. As to the kind of experiment: Potency index, ratio of benznidazole IC50 to test compound IC50 for antitrypanosomal activity against Trypanosoma cruzi Tulahuen amastigotes infected in human HT-1080 cells assessed as reduction in parasite growth by microscopic analysis. The class given is functional.

Activity calls are given as the source filed them. No cut-off for these calls is given here. Some results are limits rather than exact numbers.

Broadly, the IC50 is the concentration that inhibits the measured activity by half. Broadly, the CC50 is the concentration giving 50% cytotoxicity. Lower therefore signals greater toxicity to the cells. For `COc1c([C@H]2OC[C@H]3[C@H]2CO[C@@H]3c2ccc3c(c2)OCO3)ccc2c1OCO2`, the IC50 in the series on Trypanosoma cruzi [1] came out at 0.4 µM. The CC50 in series [2] was more than 100 µM. Also, the selectivity ratio in series [3] was more than 250. For the same compound, in the series with Trypanosoma cruzi [4], the “Ratio IC50” value is recorded as approximately 3.
On to `CCOc1ccc([C@@H]2OC[C@H](C(=O)c3ccc(OC)c(OC)c3)[C@H]2COC(C)=O)cc1OC`, for which the result in the series on Trypanosoma cruzi [1] was inactive.
Consider `O=C(Cn1ccnc1[N+](=O)[O-])NCc1ccccc1` [BENZNIDAZOLE], for which the 50% inhibitory concentration (IC50) in the series on Trypanosoma cruzi [1] turned out to be 1.1 µM. Further, the CC50 in series [2] was more than 100 µM. Further, the selectivity ratio in series [3] was more than 90.9.
Consider `COc1ccc([C@@H](O)[C@H]2CO[C@@H](c3ccc(OC)c(OC)c3)[C@@H]2CO)cc1OC`, for which, in the series with Trypanosoma cruzi [1], the result was inactive.
As to `COc1cc([C@@H]2OC[C@H]([C@H](O)c3ccc(OC)c(OC)c3)[C@H]2COC(C)=O)ccc1O`, the result in the series with Trypanosoma cruzi [1] was inactive.
On to `COc1ccc([C@@H](O)[C@H]2CO[C@@H](c3ccc(OC)c(OC)c3)[C@@H]2COC(C)=O)cc1OC`, for which, in the series on Trypanosoma cruzi [1], the IC50 is 10.5 µM. This compound also yielded a CC50 in series [2] of more than 100 µM. The selectivity ratio in series [3] was more than 9.52.
For the compound `COc1cc([C@@H]2OC[C@H]([C@H](O)c3ccc(OC)c(OC)c3)[C@H]2CO)ccc1O`, in the series on Trypanosoma cruzi [1], the outcome was inactive.
On to `COc1ccc([C@@H](O)[C@H]2CO[C@@H](c3ccc(OCc4ccccc4)c(OC)c3)[C@@H]2COC(C)=O)cc1OC`, for which the IC50 in the series on Trypanosoma cruzi [1] came out at 2.8 µM. The same compound displayed a CC50 in series [2] of more than 100 µM. Further, the selectivity ratio in series [3] is more than 35.7.
The matching figures for `CCOc1ccc([C@@H]2OC[C@H]([C@H](O)c3ccc(OC)c(OC)c3)[C@H]2COC(C)=O)cc1OC`: 3.3 µM, more than 100 µM and more than 30.3.
